Patent US20240383853A1, “OXIMES AND THEIR USE IN TREATMENT OF GBA-RELATED DISEASES” (ZEVRA DENMARK A/S, priority 2021, published 2024)
Counter-ions that a name gives are not always drawn. Marks after values point to notes of the source that are not given here.

Molecular target: T1, glucosylceramidase (GCase, GBA) in human fibroblast cell line GM10915 harboring the L444P GBA mutation (Homo sapiens, UniProt P04062, L483P)
T1 construct: Human fibroblast cell line GM10915 harboring the L444P GBA mutation; host or cells: GM10915 human fibroblasts
T1 sequence (P04062 40-536 L483P): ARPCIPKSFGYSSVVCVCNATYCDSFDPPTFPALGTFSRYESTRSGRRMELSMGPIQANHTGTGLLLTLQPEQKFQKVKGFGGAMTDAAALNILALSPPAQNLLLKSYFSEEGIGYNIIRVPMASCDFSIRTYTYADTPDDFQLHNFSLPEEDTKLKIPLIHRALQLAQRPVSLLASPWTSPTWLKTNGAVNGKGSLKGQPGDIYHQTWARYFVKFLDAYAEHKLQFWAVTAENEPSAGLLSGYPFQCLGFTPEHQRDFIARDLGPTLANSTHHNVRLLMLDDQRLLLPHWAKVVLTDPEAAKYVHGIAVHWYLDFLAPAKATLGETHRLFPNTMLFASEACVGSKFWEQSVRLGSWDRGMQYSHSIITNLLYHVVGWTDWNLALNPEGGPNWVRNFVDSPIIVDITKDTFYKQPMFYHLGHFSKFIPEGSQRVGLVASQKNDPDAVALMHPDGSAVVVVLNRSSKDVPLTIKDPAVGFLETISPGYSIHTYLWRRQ
Experiment: GCase activity assay (4-MUG substrate, normalised to crystal violet staining) in GM10915 fibroblasts
Assay type: cell-based
Conditions: five days exposure; for GBA EC1.5: concentration where Percent GCase activity = 150% (1.5-fold induction), 8-point dose range; for GBA Emax / Emax: maximum Percent GCase activity relative to untreated cells in the dose range tested
Protocol: Human fibroblast cell line GM10915 harboring the L444P GBA mutation was obtained from Coriell Biorepositories. All chemicals (Glacial acetic acid, Glycine, 4-Methylumbelliferyl b-D-glucopyranoside (4-MUG), Sodium acetate trihydrate, Sodium hydroxide, Crystal violet, SDS, Ammonium hydroxide) were obtained from Sigma-Aldrich (Denmark). Compounds tested for GCase activity were dissolved in H2O or DMSO.
The GM10915 cell line was cultured under standard cell culture conditions (37° C. and 5% CO2) in complete DMEM medium supplemented with nonessential amino acids (NEAA), 1% Pen-Strep and 12% FCS. Cells were seeded at a density of 10^4 cells/well in 100 μL complete medium in one black 96-well plate for glucosylceramidase (GCase) activity measurement and in one clear 96-well plate for crystal violet staining to correct for cell density. Crystal violet staining is performed to obtain quantitative information about the relative density of cells adhering to multi-wells plates.
The assay was adapted from Sawkar et al (2002) and briefly described in the following. The day after seeding of cells, the medium was replaced with fresh medium containing the compounds to be tested. Compounds were tested in duplicate and in an 8-point diluted dose range to obtain a dose response. Cells were exposed with compounds for five days. Fresh compound was added every 2-3 days. PBS was included to define the basal level of GCase activity.
Cells were washed three times with 200 μL PBS per well and 50 μL of 2.5 mM 4-MUG buffer (4-MUG dissolved in 0.2 M acetate buffer pH 4.0) was added and the cells were incubated at 37° C., 5% CO2 for 23 hours. The reaction was stopped by adding 150 μL 0.2 M glycine buffer (pH 10.8). Fluorescence was measured with a Varioskan® Flash reader (Thermo Scientific) at an excitation/emission setting of 365/445 nm.
Cells were treated with compounds in a parallel setup identical to the setup to test for GCase activity. At the end of compound treatment, cells were washed once with 200 μL PBS per well and 50 μL 0.1% w/v crystal violet (in H2O) was added. Following 10 min. of incubation, the crystal violet solution was removed, and the cells were washed three times with 200 μL PBS and 100 μL 1% SDS was added to solubilize the stain. The plate was agitated on an orbital shaker for 10-30 min. Absorbance (A) is measured at […] using a Varioskan® Flash reader (Thermo Scientific).
The fluorescence signal (F) derived from the GCase measurement is normalized to the absorbance signal (A) derived from the crystal violet staining. The percent GCase activity resulting from compound treatment is calculated relative to the basal activity obtained from untreated cells.
Maximal effect of compounds (Emax) is determined from the dose response effects as the maximum “Percent GCase activity” achieved in the dose range tested.

Compound | GBA EC1.5 | Emax [%] | GBA EC1.5 (listed as 419) [µM] | GBA Emax (listed as 419) [%] | GBA Emax [%]
4-(3-chloropyridin-4-yl)-N-(2-hydroxy-3-(piperidin-1-yl)propoxy)piperidine-4-carbimidoyl chloride tri-2,2,2-trifluoroacetate [ID 535] | 36 µM | – | – | – | 186
CC1(C(Cl)=NOC[C@@H](O)CN2CCCCC2)CCNCC1 (single isomer, unassigned) [ID 384] | 32 µM | 352 | – | – | –
CC1(C(Cl)=NOCC(O)CN2CC3CC3C2)CCNCC1 (single isomer, unassigned) [ID 403, N-(3-(3-azabicyclo[3.1.0]hexan-3-yl)-2-hydroxypropoxy)-4-methylpiperidine-4-carbimidoyl chloride di-2,2,2-trifluoroacetate] | 48 µM | 264 | – | – | –
CC1(C(Cl)=NOCC(O)CN2CC3CCC2C3)CCNCC1 (single isomer, unassigned) [ID 410, N-(3-(2-azabicyclo[2.2.1]heptan-2-yl)-2-hydroxypropoxy)-4-methylpiperidine-4-carbimidoyl chloride di-2,2,2-trifluoroacetate] | 43 µM | 344 | – | – | –
CN1CCN(CC(O)CON=C(Cl)C2(Cc3cccnc3)CCNCC2)CC1 (single isomer, unassigned) [ID 513, N-(2-hydroxy-3-(4-methylpiperazin-1-yl)propoxy)-4-(pyridin-3-ylmethyl)piperidine-4-carbimidoyl chloride tetra-2,2,2-trifluoroacetate] | 35 µM | 174 | – | – | –
CC1(/C(Cl)=N/OC[C@H](O)CN2CCCCC2)CCNCC1 (stereo in doubt) [ID 387, (R)—N-(2-hydroxy-3-(piperidin-1-yl)propoxy)-4-methylpiperidine-4-carbimidoyl chloride di-2,2,2-trifluoroacetate] | 35 µM | 379 | – | – | –
Nc1c(Br)cc(Br)cc1CN[C@H]1CC[C@H](O)CC1 [Ambroxol, reference compound] | >20* *The 1.5-fold induction criteria was not reached within the tested concentration range μM | 127 | – | – | –
CC1(/C(Cl)=N/OCC(O)CN2CCC(F)CC2)CCNCC1 (centres unmarked) [ID 399, N-(3-(4-fluoropiperidin-1-yl)-2-hydroxypropoxy)-4-methylpiperidine-4-carbimidoyl chloride di-2,2,2-trifluoroacetate] | 34 µM | 314 | – | – | –
CN1CCN(CC(O)CO/N=C(\Cl)C2(C)CCNCC2)CC1 (centres unmarked) [ID 402, N-(2-hydroxy-3-(4-methylpiperazin-1-yl)propoxy)-4-methylpiperidine-4-carbimidoyl chloride tri-2,2,2-trifluoroacetate] | 50 µM | 408 | – | – | –
COCCC1(/C(Cl)=N/OCC(O)CN2CCCCC2)CCNCC1 (centres unmarked) [ID 448, N-(2-hydroxy-3-(piperidin-1-yl)propoxy)-4-(2-methoxyethyl)piperidine-4-carbimidoyl chloride di-2,2,2-trifluoroacetate] | 34 µM | 468 | – | – | –
CC(O)(CON=C(Cl)c1ccc(Cl)nc1)CN1CCCCC1 (centres unmarked) [ID 502, 6-chloro-N-(2-hydroxy-2-methyl-3-(piperidin-1-yl)propoxy)nicotinimidoyl chloride] | 23 µM | 131 | – | – | –
OC(CO/N=C(\Cl)C1(c2cnccn2)CCNCC1)CN1CCCCC1 (centres unmarked) [ID 512] | 50 µM | 147 | – | – | –

The next lines start with results.

GBA EC1.5 | Emax [%] | GBA EC1.5 (listed as 419) [µM] | GBA Emax (listed as 419) [%] | Compound | GBA Emax [%]
30 µM | 239 | – | – | CN(C)CCC(Br)=NOCC(O)CN1CCCCC1 (single isomer, unassigned) [ID 532, 3-(dimethylamino)-N-(2-hydroxy-3-(piperidin-1-yl)propoxy)propanimidoyl bromide] | –
35 µM | 307 | – | – | [O-][n+]1cccc(/C(Br)=N/OCC(O)CN2CCCCC2)c1 (centres unmarked) [ID 257] | –
37 µM | 320 | – | – | CC1(/C(Cl)=N/OCC(O)CN2CCCCC2)CCNCC1 (centres unmarked) [ID 336, N-(2-hydroxy-3-(piperidin-1-yl)propoxy)-4-methylpiperidine-4-carbimidoyl chloride dihydrochloride] | –
45 µM | 474 | – | – | [O-][n+]1ccc(/C(Br)=N/OCC(O)CN2CCCCC2)cc1 (centres unmarked) [ID 352] | –
25 µM | 255 | – | – | CCC1(/C(Cl)=N/OCC(O)CN2CCCCC2)CCNCC1 (centres unmarked) [ID 409, 4-ethyl-N-(2-hydroxy-3-(piperidin-1-yl)propoxy)piperidine-4-carbimidoyl chloride di-2,2,2-trifluoroacetate] | –
23 µM | 235 | – | – | OC(CO/N=C(\Cl)C1(c2ccccn2)CCNCC1)CN1CCCCC1 (centres unmarked) [ID 415, N-(2-hydroxy-3-(piperidin-1-yl)propoxy)-4-(pyridin-2-yl)piperidine-4-carbimidoyl chloride tri-2,2,2-trifluoroacetate] | –
– | – | 12 | 387 | OC(CO/N=C(\Cl)C1(Cc2cccnc2)CCNCC1)CN1CCCCC1 (centres unmarked) [ID 419, N-(2-hydroxy-3-(piperidin-1-yl)propoxy)-4-(pyridin-3-ylmethyl)piperidine-4-carbimidoyl chloride tri-2,2,2-trifluoroacetate] | –
6 µM | 176 | – | – | CN(C)CC/C(Cl)=N\OCC(O)CN1CCCCC1 (centres unmarked) [ID 446, 3-(dimethylamino)-N-(2-hydroxy-3-(piperidin-1-yl)propoxy)propanimidoyl chloride] | –
18 µM | 572 | – | – | OC(CON=C(Br)c1ccnnc1)CN1CCCCC1 (centres unmarked) [ID 452, N-(2-hydroxy-3-(piperidin-1-yl)propoxy)pyridazine-4-carbimidoyl bromide] | –
39 µM | 202 | – | – | Cc1ncc(C(Cl)=NOCC(O)CN2CCCCC2)s1 (centres unmarked) [ID 453, N-(2-hydroxy-3-(piperidin-1-yl)propoxy)-2-methylthiazole-5-carbimidoyl chloride] | –
18 µM | 221 | – | – | OC(CON=C(Cl)c1ccc(Cl)nc1)CN1CCCCC1 (centres unmarked) [ID 466, 6-chloro-N-(2-hydroxy-3-(piperidin-1-yl)propoxy)nicotinimidoyl chloride] | –
24 µM | 354 | – | – | Cc1cc(C(Cl)=NOCC(O)CN2CCCCC2)on1 (centres unmarked) [ID 475, N-(2-hydroxy-3-(piperidin-1-yl)propoxy)-3-methylisoxazole-5-carbimidoyl chloride] | –
42 µM | 383 | – | – | OC(CO/N=C(\Cl)C1(c2cccnc2)CCNCC1)CN1CCCCC1 (centres unmarked) [ID 492, N-(2-hydroxy-3-(piperidin-1-yl)propoxy)-4-(pyridin-3-yl)piperidine-4-carbimidoyl chloride tri-2,2,2-trifluoroacetate] | –
19 µM | 128 | – | – | Cc1cc(Cl)ncc1C(Cl)=NOCC(O)CN1CCCCC1 (centres unmarked) [ID 501, 6-chloro-N-(2-hydroxy-3-(piperidin-1-yl)propoxy)-4-methylnicotinimidoyl chloride] | –
50 µM | 142 | – | – | COC(CO/N=C(\Cl)c1ccc(Cl)nc1)CN1CCCCC1 (centres unmarked) [ID 503] | –
20 µM | 310 | – | – | OC(CON=C(Br)c1ccc(Cl)nc1)CN1CCCCC1 (centres unmarked) [ID 504, 6-chloro-N-(2-hydroxy-3-(piperidin-1-yl)propoxy)nicotinimidoyl bromide] | –
